From publication PMC8752738, “A propolis-derived small molecule ameliorates metabolic syndrome in obese mice by targeting the CREB/CRTC2 transcriptional complex” (Nature Communications, 2022)
Values joined by “and” are separate entries in the source; they are usually repeats but may differ in a detail not shown here. Equal entries are not always repeated.

Assays:
CREB-CRTC2 interaction = biological target: T1, CREB-CRTC2 interaction (Homo sapiens, UniProt P16220); assay: CREB–CRTC2 mammalian two-hybrid assay (GAL4-Luc reporter); assay type: cell-based
T1 construct: expressed in transfected cells; host or cells: HEK293T
T1 sequence (P16220 whole entry, the tested form may be a part): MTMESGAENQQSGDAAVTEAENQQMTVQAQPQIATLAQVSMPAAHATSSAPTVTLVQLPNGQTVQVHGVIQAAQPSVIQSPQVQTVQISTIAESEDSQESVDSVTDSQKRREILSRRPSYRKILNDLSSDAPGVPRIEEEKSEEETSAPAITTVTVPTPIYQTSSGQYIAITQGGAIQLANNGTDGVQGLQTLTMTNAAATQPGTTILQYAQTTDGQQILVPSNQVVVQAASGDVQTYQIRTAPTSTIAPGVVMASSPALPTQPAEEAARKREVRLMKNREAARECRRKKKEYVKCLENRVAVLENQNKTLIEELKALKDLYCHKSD

HIS-CREB protein = biological target: T2, HIS-CREB protein (Homo sapiens, UniProt P16220); assay: Isothermal titration calorimetry; assay type: binding
T2 construct: made in house
T2 sequence (P16220 whole entry): as the sequence (P16220 whole entry, the tested form may be a part) above
Protocol: Isothermal titration calorimetry was performed using a MicroCal iTC200 calorimeter (Freiburg, Germany). The purified HIS-CREB protein and APC were diluted in buffer (PBS with 500 mM NaCl and 10% glycine, pH 8.0). APC solution was titrated by injection of HIS-CREB. The originally released heat from molecules binding was recorded and analyzed by Origin9 software (Origin Lab) supplied with the instrument.

tissue protein levels = assay: Immunoblotting of tissue proteins in treated mice; assay type: in vivo, mouse; conditions: for Relative LXRa/ACTIN, Mean Diff. (VEH vs. treated) / Relative LXRa/ACTIN, Mean 2 (group mean) / Relative LXRa/ACTIN: Figure 7h; for Relative LXRa/ACTIN, Mean 2 (group mean): N2 = 4; for Relative LXRa/ACTIN: single replicates
Protocol: (§1) Immunoblotting and immunoprecipitation assays were performed as previously described, with antibodies recognizing CREB, Ser133-P-CREB, AMPK, P-AMPK, AKT, P-AKT (Cell Signaling), PGC-1α (Merck), CRTC2 (Calbiochem), PCK1 (Santa Cruz), SREBP1 (Santa Cruz), SREBP2 (BD), HA (Convance), LXRα (Santa Cruz), FLAG (Sigma), GST (Covance), HIS (Abmart), GAPDH (AOGMA), α-TUBULIN (Abmart), β-ACTIN (Abmart), and other antibodies (Supplementary Table 3). For immunostaining assays, primary cultured hepatocytes seeded on coverslips were fixed with 4% paraformaldehyde for 20 min, permeabilized with 0.3% Triton X-100 in PBS, and then blocked by 5% normal goat serum and 0.3% Triton X-100 in PBS, followed by incubation with anti-CREB (1:1000), anti-P-CREB (1:1000), or anti-HA (1:3000) antibodies for 1 h at 4 °C. Slides were then washed, and after washing, slides were incubated with fluorochrome-conjugated secondary antibodies (Invitrogen). Slides were then washed and mounted with Vectashield mounting media containing 4, 6-diamidino-2-phenylindole (DAPI).

AMPK = assay: Phospho-AMPK immunoblot in primary hepatocytes; assay type: cell-based, mouse; conditions: for relative p-AMPK protein, mean: N=3 (0 μM = 1); for relative p-AMPK protein: Supp. fig.3e, individual replicates
Protocol: as §1
1 Supplementary Figure 3. APC inhibits gluconeogenesis independent of CREB-phosphorylation,
2 cell toxin or AMPK activation. […]
20 e) Phosphate-AMPK level in primary hepatocytes incubated with APC or metformin (MET) at
21 indicated concentrations (0–200 μM) for 30 minutes (top). Relative P-AMPK normalized by AMPK is […]

[1] = Cholesterol, TG, NEFA and glycerol in serum and liver; assay type: in vivo, mouse; set-up: liver NEFA, Mean 2 (group mean) / Plasma VLDL cholesterol in db/db mice (VLDL-C) / Plasma VLDL cholesterol in db/db mice, group mean / TC in liver_CT2KO (total cholesterol in the liver of CRTC2-KO) / TC in liver_WT (total cholesterol in the liver) / TC in liver_WT, mean / TC in liver_WT, Mean Diff. VEH vs. drug / TC in liver_CRTC2KO, mean / TC in liver_CRTC2KO, Mean Diff. VEH vs. drug: unit not given here; conditions: for Plasma total cholesterol, Mean 1 (drug group): N 6
Protocol: Serum total cholesterol (TC), LDL cholesterol (LDL-C), and HDL cholesterol (HDL-C) levels were detected using commercial kits (Beihua, China), and serum VLDL protein was determined by ELISA (Jiancheng, China).
The plasma TG and NEFA levels were determined using corresponding kits from Beihua (China) and WAKO (Japan), respectively. The TG levels of liver and WAT were tested by TG kit (Applygene, China). The NEFA in the liver and WAT were extracted by chloroform–methanol and then subjected to NEFA assay (WAKO).

[2] = liver, CRTC2KO mice, drug minus VEH
[3] = liver, CRTC2KO mice, group mean, N=4
[4] = liver, WT mice, group mean, N=4
[5] = 200 μM (first of two lines printed 200)
[6] = 200 μM (second of two lines printed 200)

## CCOC(=O)/C=C/c1ccc(O)cc1 [P4, (E)-p-hydroxycinnamic acid ethyl ester]
CREB-CRTC2 interaction
  reporter activity of CREB–CRTC2 two-hybrid assay: nor decreased CREB/CRTC2 interaction
HIS-CREB protein
  direct binding with HIS-CREB proteins (ITC): neither directly bound with HIS-CREB proteins

## CN(C)C(=N)NC(=N)N [MET]
Tissue protein levels; CRTC2KO
  Relative LXRa/ACTIN, Mean Diff. (VEH vs. treated): 0.07206
  Relative LXRa/ACTIN, Mean 2 (group mean): 0.7321
Tissue protein levels; CT2KO
  Relative LXRa/ACTIN: 0.7043 and 0.6782 and 0.684 and 0.8619
Tissue protein levels; WT
  Relative LXRa/ACTIN, Mean Diff. (VEH vs. treated): 0.1998
  Relative LXRa/ACTIN, Mean 2 (group mean): 0.6958
  Relative LXRa/ACTIN: 0.7209 and 0.7206 and 0.6711 and 0.6705
Tissue protein levels; [2]
  SREBP1/ACT IN CT2KO, Mean Diff. vs. VEH: -0.1882
  SREBP2/ACT IN CT2KO, Mean Diff. vs. VEH: -0.07501
Tissue protein levels; [3]
  SREBP1/ACT IN CT2KO, mean: 0.4991
  SREBP2/ACT IN CT2KO, mean: 0.6794
Tissue protein levels; liver, CRTC2KO mice, individual replicates, Supp.fig.5a left
  SREBP1/ACT IN CT2KO (related SREBP1 protein levels in CRTC2KO liver): 0.5276 and 0.4764 and 0.5154 and 0.4771
Tissue protein levels; liver, CRTC2KO mice, individual replicates, Supp.fig.5a right
  SREBP2/ACT IN CT2KO (related SREBP2 protein levels in CRTC2KO liver): 0.7097 and 0.717 and 0.6322 and 0.6586
Tissue protein levels; liver, WT mice, drug minus VEH
  SREBP1/ACT IN WT, Mean Diff. vs. VEH: -0.1949
  SREBP2/ACT IN WT, Mean Diff. vs. VEH: -0.2245
Tissue protein levels; [4]
  SREBP1/ACT IN WT, mean: 0.7683
  SREBP2/ACT IN WT, mean: 0.8001
Tissue protein levels; liver, WT mice, individual replicates, Supp.fig.5a left
  SREBP1/ACT IN WT (related SREBP1 protein levels in liver): 0.8628 and 0.72 and 0.7576 and 0.7329
Tissue protein levels; liver, WT mice, individual replicates, Supp.fig.5a right
  SREBP2/ACT IN WT (related SREBP2 protein levels in liver): 0.85 and 0.793 and 0.7497 and 0.8079
AMPK; 5 μM
  relative p-AMPK protein, mean: 1.096
  relative p-AMPK protein: 1.169 (2×) and 0.9483
AMPK; 10 μM
  relative p-AMPK protein, mean: 1.224
  relative p-AMPK protein: 1.256 and 1.249 and 1.166
AMPK; 100 μM
  relative p-AMPK protein, mean: 1.394
  relative p-AMPK protein: 1.432 and 1.326 and 1.423
AMPK; [5]
  relative p-AMPK protein, mean: 1.978
  relative p-AMPK protein: 2.049 and 1.941 and 1.943
AMPK; [6]
  relative p-AMPK protein, mean: 2.005
  relative p-AMPK protein: 1.966 and 1.951 and 2.098
AMPK; mean over all concentrations, 0 μM included
  relative p-AMPK protein, column mean: 1.449
[1]; Figure 6h, CRTC2KO mice
  Plasma total cholesterol, Mean Diff. vs. VEH: 28.04 mg/dL
[1]; Figure 6h, CRTC2KO mice, group mean
  Plasma total cholesterol, Mean 1 (drug group): 246.8 mg/dL
[1]; Figure 6h, CRTC2KO mice, individual mice
  TC in plasma_CRTC2KO (plasma total cholesterol): 232.014 mg/dL and 251.349 mg/dL and 216.160 mg/dL and 260.242 mg/dL and 252.895 mg/dL and 268.363 mg/dL
[1]; Figure 6h, WT mice
  Plasma total cholesterol, Mean Diff. vs. VEH: -63.12 mg/dL
[1]; Figure 6h, WT mice, group mean
  Plasma total cholesterol, Mean 1 (drug group): 215.4 mg/dL
[1]; Figure 6h, WT mice, individual mice
  TC in plasma_WT (plasma total cholesterol): 184.451 mg/dL and 247.868 mg/dL and 232.401 mg/dL and 156.610 mg/dL and 233.948 mg/dL and 237.041 mg/dL
[1]; liver, CRTC2-KO mice, VEH minus drug
  TC in liver_CRTC2KO, Mean Diff. VEH vs. drug: -4.203
[1]; liver, CRTC2-KO mice, drug minus VEH
  TG in liver_CT2KO, Mean Diff. vs. VEH: 5.139 mg/g protein
[1]; liver, CRTC2-KO mice, group mean (Mean 2), N=6
  TC in liver_CRTC2KO, mean: 55.56
[1]; liver, CRTC2-KO mice, group mean, N=6
  TG in liver_CT2KO, mean: 20.79 mg/g protein
[1]; liver, CRTC2-KO mice, individual animals, Supp.fig.5c
  TG in liver_CT2KO: 21.7349 mg/g protein and 16.8626 mg/g protein and 22.9286 mg/g protein and 13.5919 mg/g protein and 26.3275 mg/g protein and 23.2939 mg/g protein
[1]; liver, WT mice, VEH minus drug
  TC in liver_WT, Mean Diff. VEH vs. drug: 4.549
[1]; liver, WT mice, drug minus VEH
  TG in liver_WT, Mean Diff. vs. VEH: -8.336 mg/g protein
[1]; liver, WT mice, group mean (Mean 2), N=6
  TC in liver_WT, mean: 55.81
[1]; liver, WT mice, group mean, N=6
  TG in liver_WT, mean: 11.62 mg/g protein
[1]; liver, WT mice, individual animals, Supp.fig.5c
  TG in liver_WT: 22.699 mg/g protein and 6.6923 mg/g protein and 14.0154 mg/g protein and 7.7587 mg/g protein and 8.152 mg/g protein and 10.4144 mg/g protein
